The results in this text go back to ChEMBL document CHEMBL1201862, “PubChem BioAssay data set” (2004).

Test systems include NCI-H460; SF-295; M14; SW-620; HL-60; NCI/ADR-RES; TK-10; MDA-N; A549; RXF 393; SK-MEL-2; 786-0; SN12C; CCRF-CEM; K562; MDA-MB-435; UACC-62; BT-549; U-251; UACC-257.
Holding throughout (experiment): growth of human tumour cells (NCI), 48 h

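Method: 48-hour compound exposure of cells in 96-well plates, five concentrations, linear interpolation of endpoints. Abbreviation: GI50, concentration required for 50% inhibition of growth.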 Active and inactive are the calls of the source. Rule as the data show it: active = GI50 up to about 1.1 µM and inactive = higher. Some results are limits rather than exact numbers.

Consider `CCOC(=O)C(Cc1cc(OC)c(CC(C(=O)OCC)C(=O)OCC)cc1OC)C(=O)OCC`, for which the GI50 in the test with NCI-H460 is > 100 µM (inactive); in the test with SF-295 it was > 92.7 µM (inactive); in the test with M14, > 100 µM (inactive); in the test with SW-620, > 100 µM (inactive); in the test on HL-60, > 100 µM (inactive); with NCI/ADR-RES, > 100 µM (inactive). For the same compound, the GI50 in the test on TK-10 was > 100 µM (inactive); with MDA-N it was > 100 µM (inactive); with A549, > 100 µM (inactive); in the test on RXF 393, > 55.7 µM (inactive); in the test on SK-MEL-2, > 100 µM (inactive); with 786-0, 61.5 µM (inactive). In addition, the GI50 in the test on SN12C, with CCRF-CEM, in the test on K562, in the test on MDA-MB-435, in the test on UACC-62 and in the test on BT-549 was > 100 µM (inactive) each time. In addition, the GI50 in the test on U-251 was > 66.4 µM (inactive); with UACC-257, > 100 µM (inactive).
Consider `Cc1nn(-c2ccccc2)c(C)c1/C=N/N=C1\SCC(=O)N1c1ccccc1`, for which the GI50 in the test with NCI-H460 was 18.3 µM (inactive); in the test with SF-295 it was 21.5 µM (inactive); in the test with M14 it was 28.6 µM (inactive); with SW-620, 33.9 µM (inactive); with HL-60 it was 30.8 µM (inactive); in the test on NCI/ADR-RES, 18.5 µM (inactive). The GI50 with TK-10 is 26.2 µM (inactive); in the test with MDA-N, 20.9 µM (inactive); in the test on A549, 28.6 µM (inactive); with RXF 393, 16.5 µM (inactive); with SK-MEL-2 it was 25.7 µM (inactive); with 786-0, 15.8 µM (inactive). In addition, the GI50 in the test on SN12C is 44.7 µM (inactive); in the test on CCRF-CEM, 25 µM (inactive); in the test with K562, 25.8 µM (inactive); in the test on MDA-MB-435, 20.5 µM (inactive); in the test with UACC-62, 21.4 µM (inactive); with BT-549, 22 µM (inactive). Moreover, the GI50 in the test with U-251 was 25.8 µM (inactive); in the test on UACC-257, 32.4 µM (inactive).
On to `Nc1nc2cc(CNc3ccc(C(=O)O)cc3)ccc2nc1-c1ccccc1`, for which the GI50 in the test on NCI-H460, in the test with SF-295, with M14, with SW-620, in the test on HL-60 and in the test with NCI/ADR-RES was > 100 µM (inactive) throughout. Moreover, the GI50 in the test on TK-10, with MDA-N, with A549, with RXF 393, with SK-MEL-2 and in the test with 786-0 was > 100 µM (inactive) throughout. The GI50 in the test on SN12C is > 100 µM (inactive); with CCRF-CEM, > 100 µM (inactive); in the test on K562, > 100 µM (inactive); with MDA-MB-435 it was > 100 µM (inactive); in the test on UACC-62 it was > 10 µM (inactive); in the test with BT-549, > 100 µM (inactive). In addition, the GI50 with U-251 and with UACC-257 was > 100 µM (inactive) throughout.
`O=C(/C=C(\O)c1cc(-c2ccccc2)n(-c2ccccc2)n1)c1ccccc1`: the GI50 in the test on NCI-H460 was 3.53 µM (inactive); with SF-295, 8.17 µM (inactive); in the test with M14 it was 6.24 µM (inactive); with SW-620, 4.62 µM (inactive); with HL-60, 4.43 µM (inactive); in the test with NCI/ADR-RES it was 5.38 µM (inactive). For the same compound, the GI50 with TK-10 is 4.46 µM (inactive); with MDA-N, 18.2 µM (inactive); with A549 it was 4.4 µM (inactive); in the test with RXF 393, 67.6 µM (inactive); with SK-MEL-2, 13.4 µM (inactive); in the test on 786-0, 3.27 µM (inactive). In addition, the GI50 in the test on SN12C is 2.56 µM (inactive); with CCRF-CEM, 1.24 µM (inactive); in the test on K562 it was 3.46 µM (inactive); in the test on MDA-MB-435, 3.78 µM (inactive); in the test with UACC-62 it was 2.99 µM (inactive); with BT-549, 2.3 µM (inactive). The figures for the GI50 with U-251 and with UACC-257 were 2.84 µM (inactive) and 59.4 µM (inactive), respectively.
Consider `C=C1C(=O)OC2CC(C)C(C(O)CC(C)O)=CCC12` (stereo not given), for which the GI50 is 18.9 µM (inactive) in the test on NCI-H460; 41.2 µM (inactive) in the test on SF-295; 15.2 µM (inactive) with M14; 10.4 µM (inactive) in the test on SW-620; 3.08 µM (inactive) in the test on HL-60; 17 µM (inactive) in the test on NCI/ADR-RES. In addition, the GI50 with TK-10 is 9.14 µM (inactive); in the test with MDA-N it was 12.4 µM (inactive); in the test on A549 it was 25.9 µM (inactive); in the test on RXF 393, 12.5 µM (inactive); in the test with SK-MEL-2 it was 16.3 µM (inactive); in the test with 786-0, 13.7 µM (inactive). Besides, the GI50 with SN12C is 11.4 µM (inactive); with CCRF-CEM it was 1.71 µM (inactive); in the test with K562 it was 14.1 µM (inactive); in the test with MDA-MB-435 it was 19.6 µM (inactive); with UACC-62 it was 16.6 µM (inactive); in the test on BT-549, 13.4 µM (inactive). Moreover, the values for the GI50 in the test with U-251 and in the test with UACC-257 were 16.3 µM (inactive) and 12.9 µM (inactive), respectively.
Regarding `CCCCCCCCC[n+]1cccc(C2C(C(=O)OCC)=C(C)NC(C)=C2C(=O)OCC)c1`, the GI50 with NCI-H460 is 5.7 µM (inactive); in the test on SF-295, 17 µM (inactive); in the test with M14 it was 2.7 µM (inactive); with SW-620 it was 4.26 µM (inactive); in the test on HL-60 it was 2.82 µM (inactive); with NCI/ADR-RES, 52.6 µM (inactive). Moreover, the GI50 is 10.7 µM (inactive) in the test on TK-10; 2.13 µM (inactive) in the test with MDA-N; 18.2 µM (inactive) with A549; 2.03 µM (inactive) with RXF 393; 1.65 µM (inactive) in the test on SK-MEL-2; 7.08 µM (inactive) in the test on 786-0. Further, the GI50 in the test on SN12C was 4.67 µM (inactive); in the test on CCRF-CEM, 2.11 µM (inactive); in the test with K562, 3.89 µM (inactive); in the test with MDA-MB-435, 2.08 µM (inactive); in the test with UACC-62, 1.54 µM (inactive); with BT-549 it was 1.71 µM (inactive). For the same compound, the GI50 in the test on U-251 is 3.21 µM (inactive); in the test on UACC-257, 2.38 µM (inactive).
For `CC1OC(CC(=O)O)CC2=C1C(=O)c1c(O)cccc1C2=O` (stereo not given) [NANAOMYCIN], the GI50 is 1.74 µM (inactive) with NCI-H460; 1.08 µM (active) with SF-295; 0.14 µM (active) with M14; 0.0361 µM (active) in the test on SW-620; 0.016 µM (active) in the test on HL-60; 0.179 µM (active) with NCI/ADR-RES. Further, the GI50 was 0.929 µM (active) with TK-10; 0.182 µM (active) in the test on MDA-N; 2.08 µM (inactive) with A549; 0.0242 µM (active) with RXF 393; 0.331 µM (active) in the test with SK-MEL-2; 0.137 µM (active) with 786-0. Further, the GI50 in the test on SN12C is 0.29 µM (active); in the test on CCRF-CEM it was 0.0194 µM (active); in the test with K562 it was 0.022 µM (active); in the test with MDA-MB-435, 0.138 µM (active); in the test on UACC-62, 0.116 µM (active); with BT-549 it was 0.116 µM (active). Moreover, the GI50 in the test with U-251 was 1.03 µM (active); in the test with UACC-257 it was 0.0968 µM (active).
For `O=C(Nc1ccc2ccccc2c1)c1cc2cc(CCl)ccc2oc1=O`, the GI50 with NCI-H460 was > 100 µM (inactive); in the test with SF-295 it was 33.3 µM (inactive); in the test with M14, > 100 µM (inactive); in the test on SW-620, > 100 µM (inactive); in the test with HL-60, > 100 µM (inactive); in the test on NCI/ADR-RES, > 100 µM (inactive). In addition, the GI50 is 33.2 µM (inactive) in the test on TK-10; > 100 µM (inactive) in the test with MDA-N; > 100 µM (inactive) in the test with A549; 22 µM (inactive) in the test with RXF 393; 24 µM (inactive) in the test on SK-MEL-2; 39.4 µM (inactive) with 786-0. Further, the GI50 was > 100 µM (inactive) with SN12C; 55.5 µM (inactive) in the test with CCRF-CEM; 54 µM (inactive) in the test with K562; > 100 µM (inactive) with MDA-MB-435; > 100 µM (inactive) in the test with UACC-62; 44 µM (inactive) with BT-549. Further, the GI50 with U-251 is 30.8 µM (inactive); in the test with UACC-257, > 100 µM (inactive).
With `CC(=O)N(C(C)=O)c1ncc(-n2nc(-c3ccccc3)cc2-c2ccccc2)c(-c2ccccc2)n1`, the GI50 in the test on NCI-H460 was > 10 µM (inactive); with SF-295, > 10 µM (inactive); in the test with M14, > 10 µM (inactive); in the test on SW-620 it was > 10 µM (inactive); in the test with HL-60 it was 7.83 µM (inactive); in the test with NCI/ADR-RES it was > 10 µM (inactive). Moreover, the GI50 with TK-10 is > 10 µM (inactive); in the test with MDA-N it was 3.15 µM (inactive); with A549, > 10 µM (inactive); with RXF 393, > 10 µM (inactive); with SK-MEL-2 it was > 10 µM (inactive); in the test on 786-0, > 10 µM (inactive). The GI50 is > 10 µM (inactive) in the test with SN12C; 9.75 µM (inactive) with CCRF-CEM; > 10 µM (inactive) in the test with K562; 3.52 µM (inactive) in the test with MDA-MB-435; > 10 µM (inactive) with UACC-62; > 10 µM (inactive) with BT-549. For the same compound, the GI50 in the test on U-251 and in the test on UACC-257 was > 10 µM (inactive) in each case.
On to `Cn1c(=O)c2c(nc3n(Cc4ccccc4)c(=O)c(Br)cn23)n(C)c1=O`, for which the GI50 in the test on NCI-H460, with SF-295, in the test with M14, in the test with SW-620, in the test with HL-60 and with NCI/ADR-RES was > 100 µM (inactive) throughout. Also, the GI50 in the test on TK-10, in the test with MDA-N, in the test with A549, in the test on RXF 393, in the test on SK-MEL-2 and in the test with 786-0 was > 100 µM (inactive) in each case. Further, the GI50 in the test on SN12C, in the test with CCRF-CEM, with K562, with MDA-MB-435, in the test with UACC-62 and with BT-549 was > 100 µM (inactive) each time. In addition, the GI50 with U-251 and with UACC-257 was > 100 µM (inactive) throughout.
